Experimental data: patent US9326518B2, “Synergistic combination of a chlorotoluron compound and OIT for dry film protection” (Dow Global Technologies LLC, priority 2013, dated 2016)

Key:
Chlorella sp. ATCC 7516 = assay: Algal efficacy testing of dry paint films (modified ASTM 5589, 6-well plates); type: cell-based; conditions: 3 weeks; for % inhibition: at the Total conc, versus blank sample; for Total conc (concentration chosen as minimum inhibitory concentration, pass level ≧75% inhibition): total active ingredient in acrylic/silicone paint, dry film on filter paper
Protocol: (§1) Slurries containing 33% antimicrobial active ingredient (chlorotoluron) were post added to a white, acrylic/silicone based outdoor paint free of biocides to give a total active ingredient concentration of 10000 and 1000 ppm respectively. KATHON™ 893T (100% OIT) was post added to a white, acrylic/silicone based outdoor paint free of biocides to give a total active ingredient concentration of 10000 and 1000 ppm respectively. These paints were then diluted with an antimicrobial free acrylic/silicone based paint and mixed to prepare targeted concentrations of antimicrobial compounds for the testing. The total biocides concentrations tested were 125, 250, 500, 1000, 2000 and 5000 ppm. After biocides addition or dilution, the paints were mixed 90 seconds with the horse power shaker (AXEL 75M3372/Agitateur SO-10MI) until uniformity was achieved. Paints containing different antimicrobial compounds at the same levels were mixed together in order to obtain the desired ratio of antimicrobial compounds. After one day, the paints were applied to Schleicher & Schuell filter paper at 280 μm wet film thickness and dried for 3 days at room temperature avoiding direct exposure to sunlight. Square discs (1.6 cm×1.6 cm) were cut out from each panel and were used as the substrate for algal efficacy tests. This sample size allowed for an agar border when the sample disc was placed into the well of the test plate.
(§2) Algal efficacy was tested according to modified ASTM 5589 which is a standard accelerated test method for determining resistance of various coatings (including paints) to algal defacement. To accommodate for high-throughput screening, this method was scaled down from petri dishes to 6-well plates. Bold Modified Basal Freshwater Nutrient Solution was used as growth medium. A single coated filter paper coupon was placed with a pair of sterile forceps at the center of the agar plug (on top) with the painted surface facing upwards. Algal inoculums were prepared by mixing equal concentrations (1×10^6 cfu/ml) and equal volumes of exponentially growing algae cultures.
(§3) Each well that contains a tested coupon was inoculated with 1750 μl of algal suspensions (1×10^6 cfu/ml) making sure that the whole surface (paint film as well as the agar surrounding it) was evenly covered. The plates were incubated at room temp (21° C.-25° C.) with cyclic exposure to light and dark phases, for a period of three weeks. The total area inhibited was evaluated at the end of each week according to percent area covered in 5% increments
(§4) At the end of the three week incubation period, the samples were scored for percent inhibition regarding color intensity compared to the blank sample.
(§5) The Synergy Index calculation was performed as follows.
(§6) The SI is calculated based on F. C. Kull et.
(§7) SI value of <1 in the formula indicates a synergism of the blended biocides exists.
(§8) The minimal targeted inhibition was set at 75%, meaning a coupon with at least 75% algal growth inhibition was considered as a pass.

[1] = test system: Stichococcus bacillaris SAG 379-1a / CCAP 379/1a; assay: as above; type: cell-based; conditions: 3 weeks; for % inhibition: at the Total conc, versus blank sample; for Total conc (concentration chosen as minimum inhibitory concentration, pass level ≧75% inhibition): total active ingredient in acrylic/silicone paint, dry film on filter paper
Protocol: as §1, §2, §3, §4, §5, §6, §7, §8

SMILES	% inhibition (Chlorella sp. ATCC 7516) [%]	Total conc (concentration chosen as minimum inhibitory concentration, pass level ≧75% inhibition) (Chlorella sp. ATCC 7516) [ppm]	% inhibition [1] [%]	Total conc (concentration chosen as minimum inhibitory concentration, pass level ≧75% inhibition) [1] [ppm]
Cc1ccc(NC(=O)N(C)C)cc1Cl [Chlorotoluron, N′-(3-chloro-4-methylphenyl)-N,N-dimethylurea]	100	1000	90	500
CCCCCCCCn1sccc1=O [OIT, 2-n-octyl-4-isothiazolin-3-one]	50	2000	60	2000
